From patent publication US11304419B2, “Methods to induce heat stress tolerance in plants” (Valent BioSciences LLC, priority 2020, dated 2022)

Assays:
Type in all cases: in vivo
[1] = tested on: Apogee wheat; experiment: Heat stress tolerance in wheat following ACC application during flowering; details: heat stress 36/30° C. 7 days, n = 8
Protocol: 24 pots of Apogee wheat were grown in a greenhouse under 3 consecutive growing conditions. First, the wheat was planted in ProMix® growth media and grown for about 6 weeks in a growth cabinet at 24/18° C. day/night temperature under a 16/8 hour light/dark photoperiod. Plants were at Feekes stage 10.4-10.5 (flowering stage) following the first set of growth conditions. Next, spray applications of 0, 30 or 100 ppm ACC (n=8) were made using a tank sprayer. Next, 2 days following treatment, the plants were transferred to a growth chamber at 36/30° C. day/night temperature under a 16/8-hour light/dark photoperiod for 7 days. These conditions constitute significant heat stress. Finally, the plants were then returned to growth chamber at 24/18° C. day/night temperature under a 16/8-hour light/dark photoperiod for about 5 additional weeks. Plants were then destructively harvested and measured for total spike number, spike weight, grain weight, yield per spike, A spike number and harvest index. A spike number is calculated by subtracting the number of reproductive tillers at treatment from the number of reproductive tillers at harvest. An increase in reproductive tillers is indicative of an increase in reproductive success. Harvest index is calculated by dividing pounds of grain by the total pounds of above ground biomass.

[2] = tested on: Butterhead lettuce; experiment: Heat stress tolerance in lettuce following ACC application at rosette stage; details: heat stress 34/30° C. nine days; for Canopy Density / Fresh Weight / Δ Canopy Density: n = 5; for Canopy Density, percent increase over stress control / Fresh Weight, percent increase over stress control / Δ Canopy Density, percent increase over stress control: vs stress control; for Canopy Density, percent increase over treatment control / Fresh Weight, percent increase over treatment control / Δ Canopy Density, percent increase over treatment control: vs treatment control
Protocol: Butterhead lettuce was seeded into ProMix BX (Premier Horticulture) and grown in a greenhouse. Three weeks post-sowing the lettuce was transferred to a growth cabinet under the following conditions: 24/18° C. day/night temperature under a 16/8 hour light/dark photoperiod. Plants were at head formation (rosette) stage following the first set of growth conditions. 4 days after transfer canopy density was calculated. Next, spray applications of 0, 10, 30 or 100 ppm ACC (n=5) were made using a track sprayer on Sep. 21, 2020. Next, two days following treatment, half of the plants were transferred to a second growth cabinet at 34/30° C. day/night temperature under a 16/8-hour light/dark photoperiod for nine days. These conditions constitute significant heat stress. Plants were then destructively harvested and measured for fresh weight, size, canopy density and A canopy density. A canopy density is calculated by subtracting the canopy density at treatment from the canopy density at harvest.

[3] = tested on: Williams 82 soybean; experiment: Heat stress tolerance in soybean following ACC application; details: heat stress 34/30° C. six days; for Canopy Density / Fresh Weight / Height / Total Dry Weight / Δ Canopy Density: n = 5; for Canopy Density, percent increase over stress control / Fresh Weight, percent increase over stress control / Height, percent increase over stress control / Total Dry Weight, percent increase over stress control / Δ Canopy Density, percent increase over stress control: vs stress control; for Canopy Density, percent increase over treatment control / Fresh Weight, percent increase over treatment control / Height, percent increase over treatment control / Total Dry Weight, percent increase over treatment control / Δ Canopy Density, percent increase over treatment control: vs treatment control
Protocol: Williams 82 soybean was seeded into ProMix BX (Premier Horticulture) and grown in a greenhouse. […] Next, spray applications of […] (n=5) were made using a track sprayer on Oct. 9, 2020. Following spraying, plants were moved to a growth cabinet under the following conditions: 24/18 C day night temperatures under a 16/8 light dark period. Next, 3 days following treatment, half of the plants were transferred to a second growth cabinet at 34/30° C. day/night temperature under a 16/8-hour light/dark photoperiod for six days. These conditions constitute early season heat stress. Plants were then destructively harvested and measured for fresh weight, canopy density, Δ canopy density, total dry weight and height.

[4] = 30 ppm ACC spray at Feekes stage 10.4-10.5
[5] = 100 ppm ACC spray at Feekes stage 10.4-10.5
[6] = 10 ppm ACC spray at rosette stage
[7] = 30 ppm ACC spray at rosette stage
[8] = 100 ppm ACC spray at rosette stage

NC1(C(=O)O)CC1 [ACC, 1-amino-1-cyclopropanecarboxylic acid]
Grain Weight [1, 4]: 3.1 grams
Harvest Index [1, 4]: 0.32
Spike Weight [1, 4]: 5.39 grams
Total Spike Number [1, 4]: 6.25
Yield per Spike [1, 4]: 0.5 grams
Δ Spike Number [1, 4]: 1.75
Grain Weight [1, 5]: 3.37 grams
Harvest Index [1, 5]: 0.34
Spike Weight [1, 5]: 5.69 grams
Total Spike Number [1, 5]: 6.5
Yield per Spike [1, 5]: 0.53 grams
Δ Spike Number [1, 5]: 2.13
Canopy Density [2, 6]: 15.58
Fresh Weight [2, 6]: 93.94 grams
Δ Canopy Density [2, 6]: 5.12
Canopy Density, percent increase over stress control ([2]; 10 ppm ACC): (−11.5%)
Fresh Weight, percent increase over stress control ([2]; 10 ppm ACC): (−8.5%)
Δ Canopy Density, percent increase over stress control ([2]; 10 ppm ACC): (−24.9%)
Canopy Density, percent increase over treatment control ([2]; 10 ppm ACC): [5.9%]
Fresh Weight, percent increase over treatment control ([2]; 10 ppm ACC): [11.6%]
Δ Canopy Density, percent increase over treatment control ([2]; 10 ppm ACC): [46.3%]
Canopy Density [2, 7]: 16.65
Fresh Weight [2, 7]: 115.11 grams
Δ Canopy Density [2, 7]: 5.08
Canopy Density, percent increase over stress control ([2]; 30 ppm ACC): (−5.4%)
Fresh Weight, percent increase over stress control ([2]; 30 ppm ACC): (12.1%)
Δ Canopy Density, percent increase over stress control ([2]; 30 ppm ACC): (−25.5%)
Canopy Density, percent increase over treatment control ([2]; 30 ppm ACC): [13.2%]
Fresh Weight, percent increase over treatment control ([2]; 30 ppm ACC): [36.8%]
Δ Canopy Density, percent increase over treatment control ([2]; 30 ppm ACC): [45.1%]
Canopy Density [2, 8]: 15.80
Fresh Weight [2, 8]: 97.51 grams
Δ Canopy Density [2, 8]: 4.11
Canopy Density, percent increase over stress control ([2]; 100 ppm ACC): (−10.2%)
Fresh Weight, percent increase over stress control ([2]; 100 ppm ACC): (−5.1%)
Δ Canopy Density, percent increase over stress control ([2]; 100 ppm ACC): (−39.7%)
Canopy Density, percent increase over treatment control ([2]; 100 ppm ACC): [7.4%]
Fresh Weight, percent increase over treatment control ([2]; 100 ppm ACC): [15.9%]
Δ Canopy Density, percent increase over treatment control ([2]; 100 ppm ACC): [17.4%]
Canopy Density ([3]; 10 ppm ACC spray at V1): 13.24
Fresh Weight ([3]; 10 ppm ACC spray at V1): 19.85 grams
Height ([3]; 10 ppm ACC spray at V1): 41.07 cm
Total Dry Weight ([3]; 10 ppm ACC spray at V1): 3.15 grams
Δ Canopy Density ([3]; 10 ppm ACC spray at V1): 7.77
Canopy Density, percent increase over stress control ([3]; 10 ppm ACC): (83.9%)
Fresh Weight, percent increase over stress control ([3]; 10 ppm ACC): (32.8%)
Height, percent increase over stress control ([3]; 10 ppm ACC): (30.1%)
Total Dry Weight, percent increase over stress control ([3]; 10 ppm ACC): (18.9%)
Δ Canopy Density, percent increase over stress control ([3]; 10 ppm ACC): (256.4%)
Canopy Density, percent increase over treatment control ([3]; 10 ppm ACC): [13.6%]
Fresh Weight, percent increase over treatment control ([3]; 10 ppm ACC): [6.5%]
Height, percent increase over treatment control ([3]; 10 ppm ACC): [7.9%]
Total Dry Weight, percent increase over treatment control ([3]; 10 ppm ACC): [6.8%]
Δ Canopy Density, percent increase over treatment control ([3]; 10 ppm ACC): [22.4%]
Canopy Density ([3]; 30 ppm ACC spray at V1): 12.68
Fresh Weight ([3]; 30 ppm ACC spray at V1): 20.33 grams
Height ([3]; 30 ppm ACC spray at V1): 38.25 cm
Total Dry Weight ([3]; 30 ppm ACC spray at V1): 3.25 grams
Δ Canopy Density ([3]; 30 ppm ACC spray at V1): 7.19
Canopy Density, percent increase over stress control ([3]; 30 ppm ACC): (76.1%)
Fresh Weight, percent increase over stress control ([3]; 30 ppm ACC): (36.0%)
Height, percent increase over stress control ([3]; 30 ppm ACC): (21.1%)
Total Dry Weight, percent increase over stress control ([3]; 30 ppm ACC): (22.6%)
Δ Canopy Density, percent increase over stress control ([3]; 30 ppm ACC): (229.8%)
Canopy Density, percent increase over treatment control ([3]; 30 ppm ACC): [8.7%]
Fresh Weight, percent increase over treatment control ([3]; 30 ppm ACC): [9.1%]
Height, percent increase over treatment control ([3]; 30 ppm ACC): [0.5%]
Total Dry Weight, percent increase over treatment control ([3]; 30 ppm ACC): [10.2%]
Δ Canopy Density, percent increase over treatment control ([3]; 30 ppm ACC): [13.2%]
Canopy Density ([3]; 100 ppm ACC spray at V1): 10.90
Fresh Weight ([3]; 100 ppm ACC spray at V1): 19.25 grams
Height ([3]; 100 ppm ACC spray at V1): 37.95 cm
Total Dry Weight ([3]; 100 ppm ACC spray at V1): 3.08 grams
Δ Canopy Density ([3]; 100 ppm ACC spray at V1): 5.36
Canopy Density, percent increase over stress control ([3]; 100 ppm ACC): (51.4%)
Fresh Weight, percent increase over stress control ([3]; 100 ppm ACC): (28.8%)
Height, percent increase over stress control ([3]; 100 ppm ACC): (20.2%)
Total Dry Weight, percent increase over stress control ([3]; 100 ppm ACC): (16.2%)
Δ Canopy Density, percent increase over stress control ([3]; 100 ppm ACC): (145.9%)
Canopy Density, percent increase over treatment control ([3]; 100 ppm ACC): [−6.5%]
Fresh Weight, percent increase over treatment control ([3]; 100 ppm ACC): [3.3%]
Height, percent increase over treatment control ([3]; 100 ppm ACC): [−0.3%]
Total Dry Weight, percent increase over treatment control ([3]; 100 ppm ACC): [4.4%]
Δ Canopy Density, percent increase over treatment control ([3]; 100 ppm ACC): [−15.6%]
